Legend:
[1] = target: T1, Brd4 bromodomain 1 (BRD4(1)) (Homo sapiens, UniProt O60885); assay: Inhibition of tetra-acetylated histone H4 binding to Brd4 bromodomain 1 (TR-FRET); settings: tetra-acetylated histone H4 peptide, first bromodomain of Brd4
T1 construct: made in house; host or cells: E. coli BL21(DE3)
How it was run: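 Serially diluted compound (0.2% DMSO) incubated 2 h at room temperature with 200 nM N-His BRD4 bromodomain 1 and 25-50 nM biotinylated tetra-acetyl H4 peptide, detected via Eu-streptavidin/XL665 anti-His. Loss of 665 nm relative to 620 nm signal gave IC50 from dose-response.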

c-myc = assay: Inhibition of c-myc expression (mRNA, real-time PCR) in MV4-11 cells; type: cell-based; settings: Human AML MV4-11 cells, 3 h, cMYC mRNA
How it was run: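 One-step TaqMan qPCR of cMYC, normalized to an internal control with Cyclophilin probes run, gave fold expression versus DMSO (0.1%) control. Samples: triplicate MV4-11 wells exposed 3 h at 37° C to rising compound concentrations in IMDM with 10% FBS.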

human AML MV-4-11 cells = assay: Inhibition of cell proliferation in MV4-11 cells (CellTiter Aqueous One); type: cell-based; settings: MV4-11, 72 h
How it was run: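 IC50 values come from blank-corrected proliferation relative to DMSO controls, read as 490 nm absorbance 3–4 h after CellTiter Aqueous One addition. Before that, cells seeded at 5×10^4/well were exposed for 72 h (37° C, 5% CO2) to triplicate two-fold compound dilutions spanning 30–0.2 μM.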

hIL-6 mRNA = assay: Inhibition of hIL-6 mRNA transcription in LPS-stimulated U937 cells; type: cell-based; settings: Homo sapiens, U-937; PMA-differentiated U937 cells, 1 h pretreatment, 1 ug/mL LPS stimulation, 3 h; read-out: IL-6 activity (Inhibition of hIL-6 mRNA Transcription)
How it was run: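 U937 cells differentiated 3 days with 60 ng/mL PMA, pretreated 1 h with compound (0.1% DMSO), then stimulated with 1 ug/mL E. coli LPS for 3 h at 37 °C. hIL-6 mRNA measured by one-step TaqMan RT-qPCR, normalized to cyclophilin. Fold expression relative to control; triplicate wells.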

## Cc1noc(C)c1-c1cnc2nc(C)n(Cc3ccc(Cl)cc3Cl)c2c1 [Example Compound 61, 4-(1-(2,4-dichlorobenzyl)-2-methyl-1H-imidazo[4,5-b]pyridin-6-yl)-3,5-dimethylisoxazole]
[1]
  IC50: ≤ 300 nM
c-myc
  IC50: 300 to 3000 nM
Human AML MV-4-11 cells
  IC50: 3000 to 30000 nM
hIL-6 mRNA
  IC50: 300 to 3000 nM

## Cc1noc(C)c1-c1cnc2c(Cl)cn(Cc3ccccc3)c2c1 [compound 89, 4-(1-benzyl-3-chloro-1H-pyrrolo[3,2-b]pyridin-6-yl)-3,5-dimethylisoxazole]
[1]
  IC50: ≤ 300 nM
c-myc
  IC50: 300 to 3000 nM
Human AML MV-4-11 cells
  IC50: 300 to 3000 nM
hIL-6 mRNA
  IC50: 300 to 3000 nM

## Cc1noc(C)c1-c1ccc2oc(=O)n(Cc3ccccc3)c2c1 [Example Compound 6, 3-Benzyl-5-(3,5-dimethylisoxazol-4-yl)benzo[d]oxazol-2(3H)-one]
[1]
  IC50: 300 to 3000 nM
c-myc
  IC50: 300 to 3000 nM
Human AML MV-4-11 cells
  IC50: 300 to 3000 nM
hIL-6 mRNA
  IC50: 300 to 3000 nM

## CNC(=O)c1nc2ncc(-c3c(C)noc3C)cc2n1Cc1ccccc1 [compound 221, 1-benzyl-6-(3,5-dimethylisoxazol-4-yl)-N-methyl-1H-imidazo[4,5-b]pyridine-2-carboxamide]
[1]
  IC50: ≤ 300 nM
c-myc
  IC50: 300 to 3000 nM
Human AML MV-4-11 cells
  IC50: 300 to 3000 nM
hIL-6 mRNA
  IC50: 300 to 3000 nM

## CNc1nc2c([N+](=O)[O-])cc(-c3c(C)noc3C)cc2n1Cc1ccccc1 [compound 149, 1-benzyl-6-(3,5-dimethylisoxazol-4-yl)-N-methyl-4-nitro-1H-benzo[d]imidazol-2-amine]
[1]
  IC50: ≤ 300 nM
c-myc
  IC50: ≤ 300 nM
Human AML MV-4-11 cells
  IC50: 300 to 3000 nM
hIL-6 mRNA
  IC50: ≤ 300 nM

## Cc1noc(C)c1-c1cc(N)c2oc(=O)n(Cc3ccccc3)c2c1 [compound 67, 7-amino-3-benzyl-5-(3,5-dimethylisoxazol-4-yl)benzo[d]oxazol-2(3H)-one]
[1]
  IC50: ≤ 300 nM
c-myc
  IC50: ≤ 300 nM
Human AML MV-4-11 cells
  IC50: 300 to 3000 nM
hIL-6 mRNA
  IC50: ≤ 300 nM

## Cc1noc(C)c1-c1cc(N)c2nc(C)n(CC3CC3)c2c1 [compound 75, 1-(cyclopropylmethyl)-6-(3,5-dimethylisoxazol-4-yl)-2-methyl-1H-benzo[d]imidazol-4-amine]
[1]
  IC50: ≤ 300 nM
c-myc
  IC50: 300 to 3000 nM
Human AML MV-4-11 cells
  IC50: 300 to 3000 nM
hIL-6 mRNA
  IC50: 300 to 3000 nM

## Cc1noc(C)c1-c1cc(N)c2nc(C)n(C(C)c3ccccc3)c2c1 (stereo not shown) [compound 96, 6-(3,5-dimethylisoxazol-4-yl)-2-methyl-1-(1-phenylethyl)-1H-benzo[d]imidazol-4-amine]
[1]
  IC50: ≤ 300 nM
c-myc
  IC50: ≤ 300 nM
Human AML MV-4-11 cells
  IC50: ≤ 300 nM
hIL-6 mRNA
  IC50: ≤ 300 nM

## Cc1noc(C)c1-c1cnc2c(Br)cn(Cc3ccccc3)c2c1 [Example Compound 34, 4-(1-benzyl-3-bromo-1H-pyrrolo[3,2-b]pyridin-6-yl)-3,5-dimethylisoxazole]
[1]
  IC50: ≤ 300 nM
c-myc
  IC50: 300 to 3000 nM
Human AML MV-4-11 cells
  IC50: 300 to 3000 nM
hIL-6 mRNA
  IC50: 300 to 3000 nM

## Cc1noc(C)c1-c1cnc2nc(N3CCC3)n(CC3CCCC3)c2c1 [compound 209, 4-(2-(azetidin-1-yl)-1-(cyclopentylmethyl)-1H-imidazo[4,5-b]pyridin-6-yl)-3,5-dimethylisoxazole]
[1]
  IC50: ≤ 300 nM
c-myc
  IC50: 300 to 3000 nM
Human AML MV-4-11 cells
  IC50: ≤ 300 nM
hIL-6 mRNA
  IC50: ≤ 300 nM

## Cc1noc(C)c1-c1cnc2ccn(Cc3ccccc3)c2c1 [compound 71, 4-(1-benzyl-1H-pyrrolo[3,2-b]pyridin-6-yl)-3,5-dimethylisoxazole]
[1]
  IC50: ≤ 300 nM
c-myc
  IC50: 300 to 3000 nM
Human AML MV-4-11 cells
  IC50: 300 to 3000 nM
hIL-6 mRNA
  IC50: 300 to 3000 nM

## Cc1ccc(Cn2c(C)nc3ncc(-c4c(C)noc4C)cc32)s1 [compound 76, 3,5-dimethyl-4-(2-methyl-1-((5-methylthiophen-2-yl)methyl)-1H-imidazo[4,5-b]pyridin-6-yl)isoxazole]
[1]
  IC50: 300 to 3000 nM
c-myc
  IC50: 300 to 3000 nM
Human AML MV-4-11 cells
  IC50: 3000 to 30000 nM
hIL-6 mRNA
  IC50: 300 to 3000 nM

## Cc1noc(C)c1-c1cc2c(ncn2Cc2ccccc2)c(N)n1 [Example Compound 33, 1-benzyl-6-(3,5-dimethylisoxazol-4-yl)-1H-imidazo[4,5-c]pyridin-4-amine]
[1]
  IC50: ≤ 300 nM
c-myc
  IC50: 300 to 3000 nM
Human AML MV-4-11 cells
  IC50: 3000 to 30000 nM
hIL-6 mRNA
  IC50: 300 to 3000 nM

## Cc1noc(C)c1-c1cnc2c(c1)ncn2Cc1ccc(F)cc1 [Example Compound 44, 4-(3-(4-fluorobenzyl)-3H-imidazo[4,5-b]pyridin-6-yl)-3,5-dimethylisoxazole]
[1]
  IC50: 300 to 3000 nM
c-myc
  IC50: 3000 to 30000 nM
Human AML MV-4-11 cells
  IC50: 3000 to 30000 nM
hIL-6 mRNA
  IC50: 300 to 3000 nM

## Cc1noc(C)c1-c1cnc2c(CN(C)C)cn(Cc3ccccc3)c2c1 [compound 72, 1-(1-benzyl-6-(3,5-dimethylisoxazol-4-yl)-1H-pyrrolo[3,2-b]pyridin-3-yl)-N,N-dimethylmethanamine]
[1]
  IC50: 300 to 3000 nM
c-myc
  IC50: 3000 to 30000 nM
Human AML MV-4-11 cells
  IC50: 3000 to 30000 nM
hIL-6 mRNA
  IC50: 3000 to 30000 nM

## Cc1noc(C)c1-c1ccc2ncn(Cc3ccccc3)c2n1 [Example Compound 26, 4-(3-benzyl-3H-imidazo[4,5-b]pyridin-5-yl)-3,5-dimethylisoxazole]
[1]
  IC50: 300 to 3000 nM
c-myc
  IC50: 3000 to 30000 nM
Human AML MV-4-11 cells
  IC50: 300 to 3000 nM
hIL-6 mRNA
  IC50: 300 to 3000 nM

## CCOc1nc2c(N)cc(-c3c(C)noc3C)cc2n1Cc1ccccc1 [Example Compound 17, 1-benzyl-6-(3,5-dimethylisoxazol-4-yl)-2-ethoxy-1H-benzo[d]imidazol-4-amine]
[1]
  IC50: ≤ 300 nM
c-myc
  IC50: ≤ 300 nM
Human AML MV-4-11 cells
  IC50: 300 to 3000 nM
hIL-6 mRNA
  IC50: 300 to 3000 nM

## Cc1noc(C)c1-c1cnc2nc(C)n(Cc3cccnc3)c2c1 [compound 68, 3,5-dimethyl-4-(2-methyl-1-(pyridin-3-ylmethyl)-1H-imidazo[4,5-b]pyridin-6-yl)isoxazole]
[1]
  IC50: ≤ 300 nM
c-myc
  IC50: 300 to 3000 nM
Human AML MV-4-11 cells
  IC50: 3000 to 30000 nM
hIL-6 mRNA
  IC50: 300 to 3000 nM

## CC(=O)c1cn(Cc2ccccc2)c2cc(-c3c(C)noc3C)cnc12 [Example Compound 36, 1-(1-benzyl-6-(3,5-dimethylisoxazol-4-yl)-1H-pyrrolo[3,2-b]pyridin-3-yl)ethanone]
[1]
  IC50: ≤ 300 nM
c-myc
  IC50: 300 to 3000 nM
Human AML MV-4-11 cells
  IC50: 300 to 3000 nM
hIL-6 mRNA
  IC50: 300 to 3000 nM

## Cc1noc(C)c1-c1cnc2nc(NC3CCCC3)n(Cc3ccccc3)c2c1 [compound 214, 1-benzyl-N-cyclopentyl-6-(3,5-dimethylisoxazol-4-yl)-1H-imidazo[4,5-b]pyridin-2-amine]
[1]
  IC50: ≤ 300 nM
c-myc
  IC50: ≤ 300 nM
Human AML MV-4-11 cells
  IC50: ≤ 300 nM
hIL-6 mRNA
  IC50: ≤ 300 nM

## Cc1noc(C)c1-c1cnc2c([N+](=O)[O-])cn(Cc3ccccc3)c2c1 [Example Compound 39, 4-(1-benzyl-3-nitro-1H-pyrrolo[3,2-b]pyridin-6-yl)-3,5-dimethylisoxazole]
[1]
  IC50: ≤ 300 nM
c-myc
  IC50: 300 to 3000 nM
Human AML MV-4-11 cells
  IC50: 300 to 3000 nM
hIL-6 mRNA
  IC50: 300 to 3000 nM

## Cc1noc(C)c1-c1cnc2c(c1)ncn2Cc1ccccn1 [Example Compound 46, 3,5-dimethyl-4-(3-(pyridin-2-ylmethyl)-3H-imidazo[4,5-b]pyridin-6-yl)isoxazole]
[1]
  IC50: 300 to 3000 nM
c-myc
  IC50: 3000 to 30000 nM
Human AML MV-4-11 cells
  IC50: 3000 to 30000 nM
hIL-6 mRNA
  IC50: 3000 to 30000 nM

## COc1ccc(Cn2c(=O)[nH]c3c([N+](=O)[O-])cc(-c4c(C)noc4C)cc32)cc1 [compound 103, 6-(3,5-dimethylisoxazol-4-yl)-1-(4-methoxybenzyl)-4-nitro-1H-benzo[d]imidazol-2(3H)-one]
[1]
  IC50: ≤ 300 nM
c-myc
  IC50: 300 to 3000 nM
Human AML MV-4-11 cells
  IC50: 300 to 3000 nM
hIL-6 mRNA
  IC50: 300 to 3000 nM

## Cc1noc(C)c1-c1cnc2cnn(Cc3ccsc3)c2c1 [compound 98, 3,5-dimethyl-4-(1-(thiophen-3-ylmethyl)-1H-pyrazolo[4,3-b]pyridin-6-yl)isoxazole]
[1]
  IC50: 300 to 3000 nM
c-myc
  IC50: 300 to 3000 nM
Human AML MV-4-11 cells
  IC50: 300 to 3000 nM
hIL-6 mRNA
  IC50: 300 to 3000 nM

## Cc1noc(C)c1-c1cnc2c(C#N)cn(Cc3ccccc3)c2c1 [compound 88, 1-benzyl-6-(3,5-dimethylisoxazol-4-yl)-1H-pyrrolo[3,2-b]pyridine-3-carbonitrile]
[1]
  IC50: ≤ 300 nM
c-myc
  IC50: 300 to 3000 nM
Human AML MV-4-11 cells
  IC50: 300 to 3000 nM
hIL-6 mRNA
  IC50: ≤ 300 nM

## Cc1noc(C)c1-c1cnc2ccn(Cc3ccc(F)cc3)c2c1 [Example Compound 48, 4-(1-(4-fluorobenzyl)-1H-pyrrolo[3,2-b]pyridin-6-yl)-3,5-dimethylisoxazole]
[1]
  IC50: ≤ 300 nM
c-myc
  IC50: 300 to 3000 nM
Human AML MV-4-11 cells
  IC50: 3000 to 30000 nM
hIL-6 mRNA
  IC50: 300 to 3000 nM

## Cc1noc(C)c1-c1cc(CN)c2[nH]c(=O)n(Cc3ccccc3)c2c1 [Example Compound 22, 4-(aminomethyl)-1-benzyl-6-(3,5-dimethylisoxazol-4-yl)-1H-benzo[d]imidazol-2(3H)-one]
[1]
  IC50: 300 to 3000 nM
c-myc
  IC50: 300 to 3000 nM
Human AML MV-4-11 cells
  IC50: 300 to 3000 nM
hIL-6 mRNA
  IC50: 300 to 3000 nM

## Cc1noc(C)c1-c1cnc2nc(C)n(Cc3ccc(Cl)c(Cl)c3)c2c1 [compound 95, 4-(1-(3,4-dichlorobenzyl)-2-methyl-1H-imidazo[4,5-b]pyridin-6-yl)-3,5-dimethylisoxazole]
[1]
  IC50: ≤ 300 nM
c-myc
  IC50: 300 to 3000 nM
Human AML MV-4-11 cells
  IC50: 300 to 3000 nM
hIL-6 mRNA
  IC50: 300 to 3000 nM

From patent publication US10363257B2 (ZENITH EPIGENETICS LTD., priority 2013, dated 2019)
